Results reported in ChEMBL document CHEMBL1201862, “PubChem BioAssay data set” (2004).
Activity calls are given as the source filed them.

Assays:
[1] = molecular target: Voltage-dependent T-type calcium channel subunit alpha-1H (Homo sapiens, UniProt O95180); assay type: functional;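 also: channel activity triggered by adding a high calcium stimulation buffer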
[2] = molecular target: T1, Microphthalmia-associated transcription factor (Homo sapiens, UniProt O75030); assay: reducers of TRPM1 reporter luminescence, concentration series – cell-based, SK-MEL-5, cherry-picked, set 3, MITF inhibitor project, dose response (AID 493073); assay type: functional;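 also: SK-MEL-5 melanoma cells with luciferase driven by the MITF target TRPM1 promoter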
T1 sequence (O75030 whole entry): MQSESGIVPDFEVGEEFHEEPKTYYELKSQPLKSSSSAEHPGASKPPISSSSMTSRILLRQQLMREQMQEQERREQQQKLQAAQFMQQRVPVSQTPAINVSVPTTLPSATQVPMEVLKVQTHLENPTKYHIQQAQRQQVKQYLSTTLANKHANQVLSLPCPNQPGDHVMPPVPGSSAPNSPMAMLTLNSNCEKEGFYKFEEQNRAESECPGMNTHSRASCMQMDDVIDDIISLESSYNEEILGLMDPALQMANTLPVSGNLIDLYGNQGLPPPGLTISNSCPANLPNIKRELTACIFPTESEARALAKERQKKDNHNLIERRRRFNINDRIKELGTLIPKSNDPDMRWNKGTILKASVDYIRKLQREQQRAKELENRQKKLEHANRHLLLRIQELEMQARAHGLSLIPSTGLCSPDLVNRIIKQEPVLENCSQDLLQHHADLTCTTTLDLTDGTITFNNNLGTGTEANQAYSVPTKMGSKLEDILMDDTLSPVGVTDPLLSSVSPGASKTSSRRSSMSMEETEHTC

[3] = luciferase reporter signal suppression in cells – H4 neuroglioma cells, luminescence, dose response (AID 1990); assay type: functional, cell-based
[4] = alpha-synuclein stem-loop luciferase translation blockers – H4 neuroglioma cells, luminescence, confirmation (AID 1988); assay type: functional, cell-based
[5] = system: BJ; assay: BJ-TERT fibroblast viability loss – cell-based, RAS-independent, luminescence, dose response (AID 1933); assay type: functional; details: Homo sapiens
[6] = system: BJ; assay: cells; assay type: functional, cell-based; details: Homo sapiens
[7] = system: BJ; assay: growth inhibition of engineered Ras-driven BJ cells – cell-based, alamar blue fluorescence, cherrypicked samples, dose response (AID 2631); assay type: functional; details: Homo sapiens;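 also: confirmatory dose-response assay in RAS-dependent BJ fibroblasts engineered with TERT, LT and ST, with cytotoxicity read by fluorescence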
[8] = luciferase reporter signal reduction – luminescence, H4-C neuroglioblastoma cells, dose response (AID 2458); assay type: functional, cell-based;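 also: H4 neuroglioblastoma cells stably carrying a luciferase reporter gene fusion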
[9] = alpha-synuclein stem-loop translation blockers – luminescence, H4 neuroglioblastoma cells, dose confirmation, confirmation (AID 2454); assay type: functional, cell-based;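 also: H4 neuroglioblastoma cells carrying an alpha-synuclein 5'UTR luciferase reporter; potency for inhibition of the luciferase signal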
[10] = system: BJ; assay: BJ-TERT-LT-ST fibroblast viability loss – cell-based, RAS-independent, luminescence, dose response (AID 1935); assay type: functional; details: Homo sapiens;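 also: BJ fibroblasts immortalized with TERT plus LT and ST oncogenes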
[11] = HEK-293T viability loss after treatment – luminescence, T-cell screen hits, cytotoxicity control for TCR NF-kB inhibitor project, dose response (AID 489026); assay type: functional, cell-based;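 also: cells exposed to compound about 14 hours before the viability readout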
[12] = cells; assay type: functional, cell-based
[13] = DRD fibroblast viability loss – cell-based, non-viral oncogenic, luminescence, dose response (AID 1934); assay type: functional; details: Homo sapiens
[14] = THP-1 cell cytotoxicity, dose response, cytotoxicity control for non-replicating M. tuberculosis project (AID 489025); assay type: functional
[15] = Vero E6 cell cytotoxicity, dose response, cytotoxicity control for non-replicating M. tuberculosis project, secondary assay (AID 492998); assay type: functional, VeroE6; details: Vero C1008
[16] = HepG2 cell cytotoxicity, dose response, cytotoxicity control for non-replicating M. tuberculosis project (AID 489018); assay type: functional; details: Mycobacterium tuberculosis
[17] = microbe, parasite or virus in culture; assay type: functional; details: Mycobacterium tuberculosis
[18] = cells; assay type: functional
[19] = molecular target: Cyclin-dependent kinase 5/CDK5 activator 1 (Homo sapiens, UniProt Q00535); assay: blockade of human CDK5 activity – biochemical, cherry-picked samples, set 2, dose response (AID 504545)
[20] = molecular target: FAD-linked sulfhydryl oxidase ALR (Homo sapiens, UniProt P55789); assay: ALR-catalysed DTT oxidation blockers – biochemical, H2O2 detection, luminescence, cherry-pick, dose response (AID 493248)
[21] = molecular target: T2, Bcl-2-related protein A1 (Mus musculus, UniProt Q07440); assay type: functional;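 also: confirmatory dose–response counterscreen on Bfl-1, used to check hits from a UBC13 polyubiquitin inhibitor campaign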
T2 sequence (Q07440 whole entry): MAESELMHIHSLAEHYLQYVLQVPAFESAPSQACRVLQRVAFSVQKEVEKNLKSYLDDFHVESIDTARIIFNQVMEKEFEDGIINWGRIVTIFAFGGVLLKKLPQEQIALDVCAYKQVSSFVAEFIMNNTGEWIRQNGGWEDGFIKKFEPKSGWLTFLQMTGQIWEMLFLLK

[22] = molecular target: T3, Ubiquitin-conjugating enzyme E2 N (Homo sapiens, UniProt P61088); assay type: functional
T3 sequence (P61088 whole entry): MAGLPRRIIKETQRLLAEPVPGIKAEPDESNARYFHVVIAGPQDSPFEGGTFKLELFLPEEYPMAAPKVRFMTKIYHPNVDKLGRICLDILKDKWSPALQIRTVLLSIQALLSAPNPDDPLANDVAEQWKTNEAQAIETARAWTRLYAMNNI

[23] = molecular target: T3, Ubiquitin-conjugating enzyme E2 N; assay type: functional; remark: listed apart in the source
[24] = system: Streptococcus; assay: GAS UMAA2166 growth inhibition – luminescence, BacTiterGlo, counter-screen for streptokinase expression inhibitor project, dose response (AID 1915); assay type: functional, organism-based;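 also: potency for reduction of bacterial viability or growth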
[25] = system: Streptococcus sp. 'group A'; assay: Streptococcus pyogenes SK(-)GAS viability under kanamycin – luminescence, BacTiterGlo, confirmation, counter-screen for streptokinase expression inhibitor project, dose response (AID 1900); assay type: functional, organism-based
[26] = molecular target: T4, Streptokinase A (Streptococcus pyogenes serotype M1, UniProt P10520); assay: viability-normalized secreted streptokinase activity reduction – plasminogen activation absorbance, OD405, dose response (AID 1914); assay type: functional, Streptococcus pyogenes M1 GAS;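 also: secreted streptokinase activity via plasminogen activation per viability signal from cell pellet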
T4 sequence (P10520 whole entry): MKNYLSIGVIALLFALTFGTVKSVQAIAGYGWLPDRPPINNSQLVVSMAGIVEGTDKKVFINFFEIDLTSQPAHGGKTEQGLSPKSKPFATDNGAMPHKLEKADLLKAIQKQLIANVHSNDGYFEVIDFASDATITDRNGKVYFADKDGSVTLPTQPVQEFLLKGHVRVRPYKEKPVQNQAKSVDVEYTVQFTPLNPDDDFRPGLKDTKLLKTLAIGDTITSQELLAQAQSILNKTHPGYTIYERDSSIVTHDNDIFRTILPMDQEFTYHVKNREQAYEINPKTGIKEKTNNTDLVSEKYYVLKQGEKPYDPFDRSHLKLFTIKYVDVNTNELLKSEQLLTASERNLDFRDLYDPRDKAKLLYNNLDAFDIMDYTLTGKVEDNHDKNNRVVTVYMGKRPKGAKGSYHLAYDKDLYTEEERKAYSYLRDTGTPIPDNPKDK

[27] = A Cell Based Secondary Assay To Explore Cytotoxicity of Compounds that Sensitize Mycobacterium Tuberculosis to Beta-Lactam Antibiotics.; assay type: functional
[28] = Luminescence Cell-Based Dose Retest to Confirm Inhibitors of Cancer Stem Cells. [Related pubchem assays (depositor defined):AID2717, AID2721]; assay type: functional; details: Homo sapiens

Voltage-dependent T-type calcium channel subunit alpha-1H, sequence (O95180 whole entry): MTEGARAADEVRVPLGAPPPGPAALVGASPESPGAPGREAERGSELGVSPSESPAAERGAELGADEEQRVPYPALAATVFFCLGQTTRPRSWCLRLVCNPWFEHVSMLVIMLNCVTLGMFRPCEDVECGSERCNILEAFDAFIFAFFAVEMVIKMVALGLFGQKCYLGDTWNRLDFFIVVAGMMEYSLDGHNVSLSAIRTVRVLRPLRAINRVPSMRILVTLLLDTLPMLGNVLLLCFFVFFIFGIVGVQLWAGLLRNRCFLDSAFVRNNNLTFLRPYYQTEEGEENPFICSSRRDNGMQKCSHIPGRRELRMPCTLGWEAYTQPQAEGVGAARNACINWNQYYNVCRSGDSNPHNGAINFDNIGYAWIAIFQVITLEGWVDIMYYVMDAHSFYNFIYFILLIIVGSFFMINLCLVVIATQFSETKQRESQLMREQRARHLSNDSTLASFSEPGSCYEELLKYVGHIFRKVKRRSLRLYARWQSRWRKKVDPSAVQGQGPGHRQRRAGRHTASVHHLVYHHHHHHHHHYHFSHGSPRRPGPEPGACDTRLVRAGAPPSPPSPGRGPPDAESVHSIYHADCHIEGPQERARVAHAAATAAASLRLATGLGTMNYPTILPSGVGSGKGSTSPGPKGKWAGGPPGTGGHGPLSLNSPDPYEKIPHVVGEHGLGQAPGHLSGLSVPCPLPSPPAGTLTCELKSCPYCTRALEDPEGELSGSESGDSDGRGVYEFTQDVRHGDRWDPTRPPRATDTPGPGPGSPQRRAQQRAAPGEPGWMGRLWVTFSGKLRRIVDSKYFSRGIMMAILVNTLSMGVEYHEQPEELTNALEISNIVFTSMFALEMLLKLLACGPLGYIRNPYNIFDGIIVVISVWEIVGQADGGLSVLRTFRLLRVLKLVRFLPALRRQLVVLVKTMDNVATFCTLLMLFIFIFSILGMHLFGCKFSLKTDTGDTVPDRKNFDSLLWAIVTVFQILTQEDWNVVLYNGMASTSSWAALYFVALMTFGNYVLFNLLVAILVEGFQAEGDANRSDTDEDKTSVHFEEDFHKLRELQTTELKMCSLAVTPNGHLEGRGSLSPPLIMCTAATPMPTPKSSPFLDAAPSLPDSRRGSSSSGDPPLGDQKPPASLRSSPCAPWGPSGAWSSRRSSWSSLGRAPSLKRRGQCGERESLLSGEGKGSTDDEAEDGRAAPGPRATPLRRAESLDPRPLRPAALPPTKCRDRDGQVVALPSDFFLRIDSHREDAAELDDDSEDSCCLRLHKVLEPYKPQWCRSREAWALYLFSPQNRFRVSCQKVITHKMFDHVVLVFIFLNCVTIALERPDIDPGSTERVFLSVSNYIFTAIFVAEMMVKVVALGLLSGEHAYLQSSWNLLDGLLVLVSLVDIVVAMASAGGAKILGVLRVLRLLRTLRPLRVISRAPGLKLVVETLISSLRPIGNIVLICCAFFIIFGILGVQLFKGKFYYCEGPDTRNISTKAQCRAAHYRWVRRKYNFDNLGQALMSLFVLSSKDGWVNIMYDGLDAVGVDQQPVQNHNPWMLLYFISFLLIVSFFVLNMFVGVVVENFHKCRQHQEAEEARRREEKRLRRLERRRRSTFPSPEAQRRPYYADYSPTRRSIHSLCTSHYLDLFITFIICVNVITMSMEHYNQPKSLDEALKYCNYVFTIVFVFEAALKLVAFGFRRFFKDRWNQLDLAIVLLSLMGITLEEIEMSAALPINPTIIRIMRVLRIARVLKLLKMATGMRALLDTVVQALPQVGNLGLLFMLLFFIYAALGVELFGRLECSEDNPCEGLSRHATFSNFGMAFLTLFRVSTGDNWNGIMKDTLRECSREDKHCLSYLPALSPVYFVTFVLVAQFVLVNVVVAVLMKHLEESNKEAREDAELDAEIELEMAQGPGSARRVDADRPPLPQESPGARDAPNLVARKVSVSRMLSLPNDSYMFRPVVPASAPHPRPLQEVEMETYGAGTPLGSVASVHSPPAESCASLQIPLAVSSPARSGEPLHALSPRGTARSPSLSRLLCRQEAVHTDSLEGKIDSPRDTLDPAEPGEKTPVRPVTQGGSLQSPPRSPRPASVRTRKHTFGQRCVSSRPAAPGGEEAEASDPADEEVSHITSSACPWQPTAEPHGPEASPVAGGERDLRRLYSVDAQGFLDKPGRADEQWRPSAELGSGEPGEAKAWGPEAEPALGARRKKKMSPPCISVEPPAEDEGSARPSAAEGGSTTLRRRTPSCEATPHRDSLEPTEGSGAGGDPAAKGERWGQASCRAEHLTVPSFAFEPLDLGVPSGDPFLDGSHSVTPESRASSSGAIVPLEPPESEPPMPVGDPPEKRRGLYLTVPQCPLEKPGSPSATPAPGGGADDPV
FAD-linked sulfhydryl oxidase ALR, sequence (P55789 whole entry): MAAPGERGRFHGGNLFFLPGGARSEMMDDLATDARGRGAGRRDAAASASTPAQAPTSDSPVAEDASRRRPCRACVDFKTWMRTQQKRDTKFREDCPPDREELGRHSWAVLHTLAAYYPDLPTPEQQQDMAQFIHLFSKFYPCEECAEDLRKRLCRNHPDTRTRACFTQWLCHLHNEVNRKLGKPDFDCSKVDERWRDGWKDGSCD
Cyclin-dependent kinase 5/CDK5 activator 1, sequence (Q00535 whole entry): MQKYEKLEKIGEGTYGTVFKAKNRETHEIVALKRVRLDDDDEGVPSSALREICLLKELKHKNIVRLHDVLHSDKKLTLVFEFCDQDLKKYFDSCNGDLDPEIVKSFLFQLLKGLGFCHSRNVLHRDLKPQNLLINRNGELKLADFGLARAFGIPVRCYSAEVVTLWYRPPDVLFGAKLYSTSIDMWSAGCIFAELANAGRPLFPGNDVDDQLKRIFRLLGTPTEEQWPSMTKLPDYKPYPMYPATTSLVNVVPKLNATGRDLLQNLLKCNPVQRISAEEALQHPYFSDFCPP
Cyclin-dependent kinase 5/CDK5 activator 1, sequence (Q15078 whole entry, further chain): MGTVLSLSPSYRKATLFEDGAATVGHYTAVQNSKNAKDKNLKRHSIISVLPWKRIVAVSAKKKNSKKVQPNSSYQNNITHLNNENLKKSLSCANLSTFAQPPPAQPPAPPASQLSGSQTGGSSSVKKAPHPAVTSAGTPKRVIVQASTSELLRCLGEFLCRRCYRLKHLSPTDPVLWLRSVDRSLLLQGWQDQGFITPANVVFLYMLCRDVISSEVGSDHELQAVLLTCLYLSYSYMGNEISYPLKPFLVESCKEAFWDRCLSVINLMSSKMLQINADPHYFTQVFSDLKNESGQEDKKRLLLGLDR

## COc1cccc(-c2nc(CS(=O)(=O)CC(=O)N3CCc4ccccc4C3)c(C)o2)c1
[1]
  EC50: 10.8 µM (active)

## N#C/C(=C(/O)CCl)c1nc2ccccc2[nH]1
[2]
  AC50: 4.6 µM (active)

## CCOc1ccccc1C(=O)N1CCN(c2cccc(Cl)c2)CC1
[3]
  EC50: < 0.1 µM (active)
[4]
  EC50: < 0.1 µM (active)
[5]
  EC50: 2.66 µM (inconclusive)
[6]
  EC50: 2.85 µM (inconclusive)
[7]
  EC50: < 0.104 µM (active)
[8]
  EC50: 0.229 µM (active)
[9]
  EC50: 0.31 µM (active)
[10]
  EC50: 1.44 µM (active)
[11]
  IC50: > 80 µM (inactive)
[12]
  EC50: 0.331 µM (active)
[13]
  EC50: 2.65 µM (active)

## CC(C)(C)OC(=O)NNc1c2ccccc2nc2ccccc12
[14]
  CC50: > 40 µM (active)
[15]
  CC50: > 20 µM (active)
[16]
  CC50: 15.1 µM (active)
[17]
  CC50: > 40 µM (active)
[18]
  IC50: 22.2 µM (active)

## Cc1cc(-c2nsc(=O)o2)c(S(C)(=O)=O)s1
[19]
  AC50: 29.3 µM (active)
[20]
  AC50: 3.86 µM (active)

## Cn1cccc1Cc1nnc(SCC(=O)Nc2ccc(Cl)cc2)n1-c1ccc(F)cc1
[1]
  EC50: 1.32 µM (active)

## O=C(NCCN1CCN(c2ccccc2)CC1)c1ccc2c(c1)[nH]c(=S)n1c3ccccc3nc21
[21]
  IC50: > 20 µM (inactive)
[22]
  IC50: 0.829 µM (active)
[23]
  IC50: > 20 µM (inactive)

## COc1cc2c(C(=O)N3CCN(c4ccccc4C)CC3)c(C)oc2cc1Br
[24]
  EC50: 36 µM (active)
[25]
  EC50: 4.4 µM (active)
[26]
  EC50: 79.8 µM (active)
[27]
  CC50: > 40 µM (active)

## COc1cc(OC)cc(-c2cc3ccc(OC)cc3cn2)c1
[28]
  AC50: 3.32 µM (active)
[27]
  CC50: 21.8 µM (active)
